# Tests used:
# [1] = tested on: transgenic zebrafish Tg (rho: NTR-NanoLuc, my17: DsRed2); test: animal or person
# Text: First, the present inventors constructed a model for evaluating induction of rod cell regeneration. […] Transgenic zebrafish Tg (rho: NTR-NanoLuc, my17: DsRed2), in which a fluorescent protein, DsRed2, which is cardiac-tissue specifically expressed by cardiomyocyte-specific my17 promoter, can be simply detected by using dsRed2 as a marker under a fluorescence stereomicroscope. In the transgenic zebrafish, in addition to cardiac tissue specific expression of DsRed2, a reductase, i.e., nitroreductase (NTR), and a photoprotein, i.e., NanoLuc fusion protein (NTR-NanoLuc), are expressed by a rod-cell specific rho promoter, in a rod-cell specific manner. […] However, if, a prodrug, metronidazole, is added, non-toxic metronidazole is converted to a toxic radical by NTR. […] After rod cells are ablated by treatment with metronidazole, the transgenic zebrafish were washed with rearing water to remove the toxic radical. […] In the transgenic zebrafish, rod cells can be quantitatively determined by measuring the amount of luminescence derived from rod-cell-specific NanoLuc expression. After the rod cells are ablated, the transgenic zebrafish are exposed to a test compound. The activity of the test compound to induce rod-cell regeneration can be quantitatively evaluated by measuring the amount of luminescence derived from NanoLuc and specific to rod cells.
# 1) On the day before collection of eggs, a pair of male and female zebrafish, i.e., a transgenic fish Tg (rho: NTR-NanoLuc, my17: DsRed2) and a wild type, were placed in a tank for mating and isolated by a divider.
# 2) The next morning (8:00-11:00), the divider was removed to allow them to mate with each other. Fertilized eggs were collected. In the evening (16:00-18:00) of the same day, only normally developed fertilized eggs were screened and raised in a plate for growth.
# 3) Day 3 after fertilization, juvenile fish were transferred to rearing water, which contained 10 mM metronidazole (Sigma-Aldrich, Japan) and 1% DMSO (Wako Pure Chemical Industries Ltd.), (prepared by dissolving 60 mg of instant ocean (Napco Limited (Japan)) in 1 L of distilled water), and raised in dark conditions for 24 hours. In this manner, ablation was specifically applied to the rod cells of the juvenile fish. In contrast, non-ablated juvenile fish, which were to be used as a control, were transferred to a tank containing rearing water, which contained a 1% DMSO solution, and raised.
# 5) Ablated juvenile fish of 4 days after fertilization were washed well with Egg water and dispensed in wells of the assay plate containing a compound together with 100 μL of Egg water, such that 2 juvenile fish individuals were present per well.
# 6) After the juvenile fish were raised for 2 days, […] of Egg water was removed and ethyl 3-aminobenzoate methanesulfonate (Sigma-Aldrich Japan; 0.4 mg/mL, 10 μL) was added to euthanize the fish.
# 7) Nano-Glo (registered trademark) Luciferase assay Substrate (Promega Corporation) was added to Nano-Glo (registered trademark) Luciferase assay buffer (Promega Corporation) in a ratio of 1:50 and 100 μL of the resultant solution was added to each of the wells.
# 8) Shaking was carried out by use of BIO-Mixer (Biotech Japan Co., Ltd.) for one hour and luminescence of NanoLuc (registered trademark) was measured by use of EnVision (PerkinElmer Co., Ltd., Japan).
# Individual concentration groups were compared to the DMSO control group by the Dunnett's test.
# [2] = tested on: Pathological zebrafish 1: Tg (rho: EGFP) crossed with Tg (rho: hRHO (Q344X), omp: EGFP); test: Rod-cell regeneration effect in retinitis pigmentosa model, EGFP observed by confocal laser microscope; type: in vivo; conditions: 1 μM; fish raised 2 days with compound; FIG. 6
# Method: Pathological model fish, in which rod-cell regeneration can be observed, were prepared using zebrafish known as a retinitis pigmentosa model. The effect of a compound was confirmed in accordance with the following procedure. As the compound to be evaluated, TTNPB (Sigma-Aldrich, Cat. No. T3757-10MG), was used.
# 1) To prepare a pathological model, in which rod-cell regeneration can be observed, zebrafish Tg (rho: EGFP) (Hamaoka T1, Takechi M, Chinen A et al., Visualization of rod photoreceptor development using GFP-transgenic zebrafish. Genesis. 2002; 34 (3): 215-220.; used as a reporter fish of rod cells) were crossed with zebrafish Tg (rho: hRHO (Q344X), omp: EGFP), which is a name under another nomenclature system of a retinitis pigmentosa model, i.e., zebrafish RH1: hRhodopsin (Q344X) (Nakao T, Tsujikawa M, Notomi S, Ikeda Y, Nishida K., “The role of mislocalized phototransduction in photoreceptor cell death of retinitis pigmentosa.”, PLoS One., 2012; 7 (4): e32472). The zebrafish obtained were specified as zebrafish (Pathological zebrafish 1). Control zebrafish (non-pathological zebrafish) were obtained by crossing zebrafish Tg (rho: EGFP) with wild-type zebrafish. […]
# Luminescence of EGFP specifically expressed in rod cells was observed by a confocal laser microscope in the following procedure. […]
# [3] = tested on: pathological zebrafish 2: Tg (rho: NTR-NanoLuc, my17: DsRed2) crossed with Tg (rho: hRHO (Q344X), omp: EGFP); test: Rod-cell regeneration effect in retinitis pigmentosa model, quantitative evaluation by NanoLuc luminescence; type: in vivo; conditions: N=8 per concentration; Dunnett's test; FIG. 7
# Method: Pathological model zebrafish, in which rod-cell regeneration can be quantitatively evaluated, were newly prepared using zebrafish known as a retinitis pigmentosa model. The effect of compounds was quantitatively verified in accordance with the following procedure.
# 1) Quantitative evaluation of rod-cell regeneration was carried out by zebrafish (pathological zebrafish 2) obtained by crossing transgenic Tg (rho: NTR-NanoLuc, my17: DsRed2) and Tg (rho: hRHO (Q344X), omp: EGFP).
# Fertilized eggs were collected.
# A screening test was repeated 8 times (N=8) at each concentration.
# 2) After shaking for one hour using BIO-Mixer, the luminescence from NanoLuc (registered trademark) was measured by use of EnVision.
structure (smiles),measurement,setting,value
"C/C(=C\c1ccc(C(=O)O)cc1)c1ccc2c(c1)C(C)(C)CCC2(C)C [TTNPB, 4-[(E)-2-(5,6,7,8-tetrahydro-5,5,8,8-tetramethyl-2-naphthalenyl)-1-propenyl]benzoic acid]",rod-cell regeneration induction activity compared to the DMSO control,"[1]; Examples 3 and 4, TTNPB 0.3, 1, 3, 10 and 30 μM, N=4, RA and BMS493 N=8, Dunnett's test",statistically significant rod-cell regeneration induction activity at all concentrations
same,concentration at which the medicinal effect already reached saturation,"[1]; minimum concentration tested, range 0.3-30 μM",≤ 0.3 µM
same,Activation (%),"[1]; screening, 2.5 μM, relative to average of DMSO control = 100",≥ 150%
same,number of rod cells compared to pathological fish untreated with drug,[2],Recovery in the number of rod cells was confirmed
same,"regeneration of rod cells in the retinitis pigmentosa model (luminescence, words)",[3],statistically significant regeneration of rod cells in a dose dependent manner

# — US11931327B2, “Drug for retinal degenerative disease associated with photoreceptor degeneration” (Daiichi Sankyo Company, Limited, priority 2017, dated 2024)
